Measured values taken from patent US20230157283A1, “COMPOSITIONS AND METHODS FOR INHIBITING A FUNGAL PATHOGEN” (Tu Biomics, Inc., priority 2020, published 2023).

Columns and labels:
Botrytis cinerea = experiment: Example 1: in vitro growth on agar plates containing organic acids; format: cell-based; design: Botrytis Treated (in vitro growth, mean±SE): unit not given here; conditions: for Botrytis Treated (in vitro growth, mean±SE): n=4 plates
Method: (§1) In FIG. 1, n.s. indicates “not significant”, ppm indicates “parts per million”; L and (S) indicate levorotatory and sinister rotatory, respectively, and asterisks are used to indicate degrees of statistical significance according to standard conventions. 2-fold concentrated compositions of lactate and acetate were diluted 1:1 with a deionized water + agar solution to prepare agar plates
(§2) In a first round of experiments, the effect of acetate, and dextrorotary (d), levorotary (1), and racemic mixtures of enantiomers of lactate alone, or in combination with acetate was evaluated on the growth of Sclerotium cepivorum and Botrytis cinera (Tables 1A and 1B).
(§3) The effects of higher concentrations of acetate and lactate L (S) on growth was evaluated (Tables 2A and 2B).

Sclerotium cepivorum = experiment: as above; format: cell-based; design: Sclerotium Treated (in vitro growth, mean±SE): unit not given here; conditions: for Sclerotium Treated (in vitro growth, mean±SE): n=4 plates
Method: as §1, §2, §3

[1] = 175 ppm, 7 days after inoculation
[2] = 175 ppm, 7 days, n.s./bracketed = not significant
[3] = 350 ppm, 7 days after inoculation
[4] = 350 ppm, 7 days, n.s./bracketed = not significant
[5] = 175 ppm, 7 days, negative = inhibition, n.s./bracketed = not significant
[6] = 350 ppm, 7 days, negative = inhibition, n.s./bracketed = not significant
[7] = first round, concentrations of Tables 1A and 1B
[8] = 200 ppm, 7 days after inoculation
[9] = 400 ppm, 7 days after inoculation
[10] = 600 ppm, 7 days, second round, n.s./bracketed = not significant
[11] = 600 ppm, 7 days, second round (higher concentrations)
[12] = higher concentrations, Tables 2A and 2B

CC(O)C(=O)O (racemic) [Lactate DL (RS racemic mix), reference compound]
Botrytis Treated (in vitro growth, mean±SE) (Botrytis cinerea; [1]): 16.81 ± 1.23 | % Efficacy (percentage of mean growth in control plates) (Botrytis cinerea; [2]): n.s. | Botrytis Treated (in vitro growth, mean±SE) (Botrytis cinerea; [3]): 26.15 ± 3.37 | % Efficacy (percentage of mean growth in control plates) (Botrytis cinerea; [4]): n.s. | Sclerotium Treated (in vitro growth, mean±SE) (Sclerotium cepivorum; [1]): 2.06 ± 1.18 | % Efficacy (percentage of mean growth in control plates) (Sclerotium cepivorum; [5]): -72% | Sclerotium Treated (in vitro growth, mean±SE) (Sclerotium cepivorum; [3]): 6.71 ± 2.90 | % Efficacy (percentage of mean growth in control plates) (Sclerotium cepivorum; [6]): n.s. | effect on growth of S. cepivorum (in words) (Sclerotium cepivorum; [7]): inhibited growth

C[C@@H](O)C(=O)O [Lactate D (R), D-lactic acid, reference compound]
Botrytis Treated (in vitro growth, mean±SE) (Botrytis cinerea; [1]): 23.42 ± 1.23 | % Efficacy (percentage of mean growth in control plates) (Botrytis cinerea; [2]): 49% | Botrytis Treated (in vitro growth, mean±SE) (Botrytis cinerea; [3]): 23.82 ± 2.65 | % Efficacy (percentage of mean growth in control plates) (Botrytis cinerea; [4]): [35] % | Sclerotium Treated (in vitro growth, mean±SE) (Sclerotium cepivorum; [1]): 14.09 ± 5.75 | % Efficacy (percentage of mean growth in control plates) (Sclerotium cepivorum; [5]): n.s. | Sclerotium Treated (in vitro growth, mean±SE) (Sclerotium cepivorum; [3]): 10.68 ± 3.19 | % Efficacy (percentage of mean growth in control plates) (Sclerotium cepivorum; [6]): n.s. | effect on growth of S. cepivorum (in words) (Sclerotium cepivorum; [7]): appeared to act as a carbon source

CC(=O)O [Acetate, acetic acid]
Botrytis Treated (in vitro growth, mean±SE) (Botrytis cinerea; [8]): 16.19 ± 1.09 | % Efficacy (percentage of mean growth in control plates) (Botrytis cinerea; 200 ppm, 7 days, negative = inhibition): -33% | Botrytis Treated (in vitro growth, mean±SE) (Botrytis cinerea; [9]): 12.37 ± 0.79 | % Efficacy (percentage of mean growth in control plates) (Botrytis cinerea; 400 ppm, 7 days, negative = inhibition): -49% | % Efficacy (percentage of mean growth in control plates) (Botrytis cinerea; [10]): n.s.[11] % | Botrytis Treated (in vitro growth, mean±SE) (Botrytis cinerea; 600 ppm, 7 days, second round): 22.25 ± 4.12 | % Efficacy (percentage of mean growth in control plates) (Botrytis cinerea; 800 ppm, 7 days, second round, n.s./bracketed = not significant): n.s.[13] % | Botrytis Treated (in vitro growth, mean±SE) (Botrytis cinerea; 800 ppm, 7 days, second round): 22.73 ± 4.69 | Botrytis Treated (in vitro growth, mean±SE) (Botrytis cinerea; 1000 ppm, 7 days, second round): 29.75 ± 3.76 | % Efficacy (percentage of mean growth in control plates) (Botrytis cinerea; 1000 ppm, 7 days, second round, positive = more growth): 48% | effect on growth of B. cinerea (in words) (Botrytis cinerea; [7]): significantly inhibited growth | effect on growth of B. cinerea (in words) (Botrytis cinerea; summary of FIG. 1): inhibited growth of B. cinera at lower concentrations, but served as a carbon source at higher concentrations | Sclerotium Treated (in vitro growth, mean±SE) (Sclerotium cepivorum; [8]): 3.63 ± 2.30 | % Efficacy (percentage of mean growth in control plates) (Sclerotium cepivorum; 200 ppm, 7 days, negative = inhibition, n.s./bracketed = not significant): n.s. [23] % | Sclerotium Treated (in vitro growth, mean±SE) (Sclerotium cepivorum; [9]): 2.62 ± 1.85 | % Efficacy (percentage of mean growth in control plates) (Sclerotium cepivorum; 400 ppm, 7 days, negative = inhibition, n.s./bracketed = not significant): n.s. [-39] % | Sclerotium Treated (in vitro growth, mean±SE) (Sclerotium cepivorum; [11]): 2.41 ± 0.57 | % Efficacy (percentage of mean growth in control plates) (Sclerotium cepivorum; [10]): -86% | % Efficacy (percentage of mean growth in control plates) (Sclerotium cepivorum; 800 ppm, 7 days, second round): -97% | Sclerotium Treated (in vitro growth, mean±SE) (Sclerotium cepivorum; 800 ppm, 7 days, second round): 0.51 ± 0.20 | effect on growth of S. cepivorum (in words) (Sclerotium cepivorum; [7]): significantly inhibited growth | effect on growth of S. cepivorum (in words) (Sclerotium cepivorum; [12]): increased with acetate concentration at all concentrations evaluated

C[C@H](O)C(=O)O [Lactate L (S), L-lactic acid]
Botrytis Treated (in vitro growth, mean±SE) (Botrytis cinerea; [1]): 23.59 ± 2.66 | % Efficacy (percentage of mean growth in control plates) (Botrytis cinerea; [2]): [38] % | Botrytis Treated (in vitro growth, mean±SE) (Botrytis cinerea; [3]): 27.71 ± 4.97 | % Efficacy (percentage of mean growth in control plates) (Botrytis cinerea; [4]): [71] % | Sclerotium Treated (in vitro growth, mean±SE) (Sclerotium cepivorum; [1]): 5.73 ± 1.72 | % Efficacy (percentage of mean growth in control plates) (Sclerotium cepivorum; [5]): [-43] % | Sclerotium Treated (in vitro growth, mean±SE) (Sclerotium cepivorum; [3]): 5.17 ± 1.85 | % Efficacy (percentage of mean growth in control plates) (Sclerotium cepivorum; [6]): [-46] % | % Efficacy (percentage of mean growth in control plates) (Sclerotium cepivorum; 450 ppm, 7 days, second round, n.s./bracketed = not significant): n.s.[-7] % | Sclerotium Treated (in vitro growth, mean±SE) (Sclerotium cepivorum; 450 ppm, 7 days, second round): 16.08 ± 3.55 | Sclerotium Treated (in vitro growth, mean±SE) (Sclerotium cepivorum; [11]): 20.50 ± 4.10 | % Efficacy (percentage of mean growth in control plates) (Sclerotium cepivorum; [10]): n.s.[18] % | effect on growth of S. cepivorum (in words) (Sclerotium cepivorum; [7]): inhibited growth | effect on growth of S. cepivorum (in words) (Sclerotium cepivorum; [12]): not effective | effect on growth of S. cepivorum (in words) (Sclerotium cepivorum; summary of FIG. 1): inhibited growth of S. cepivorum at lower concentrations, but served as a carbon source at higher concentrations
